# Reference: the supplement of paper PMC10307832
# Assays:
# Assay in all cases: relative viability (nuclei count vs DMSO), 5 days (fraction); higher = more cells survive
# Linifanib = compound: Cc1ccc(F)c(NC(=O)Nc2ccc(-c3cccc4[nH]nc(N)c34)cc2)c1 [Linifanib]
# Summary of the method: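 On vehicle-anchored 1536-well plates, lung cancer cell lines held overnight at 37 °C were pinned with five library-drug doses (not always all listed) spaced by √10. With no medium change over 5 days, they were then fixed, permeabilised and Hoechst-stained in one step and imaged at 4×. MetaXpress counted nuclei, and viability is the median across plates of treated-well over vehicle-well nuclei. Acceptance needed control CV below 25% and at least one doubling.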
# Linifanib + Bortezomib = compound: Cc1ccc(F)c(NC(=O)Nc2ccc(-c3cccc4[nH]nc(N)c34)cc2)c1 [Linifanib] + CC(C)C[C@H](NC(=O)[C@H](Cc1ccccc1)NC(=O)c1cnccn1)B(O)O [Bortezomib] (partner 0.002 µM)
# Summary of the method: (§1)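 A single step with final 0.05% Triton X-100, 1% formaldehyde and 1 ug/ml Hoechst fixed the cells and stained nuclei 5 days after treatment. Lung cancer cell lines in 1536-well plates had been treated by pin tool the day after seeding with one drug alone or a fixed anchor-drug dose plus five library-drug doses (not always all listed) in √10 steps, and nuclei were counted on 4× images. Relative viability is the ratio of nuclei in treated wells to nuclei in vehicle wells, taken as the median of duplicate plates.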
# Linifanib + Navitoclax = compound: Cc1ccc(F)c(NC(=O)Nc2ccc(-c3cccc4[nH]nc(N)c34)cc2)c1 [Linifanib] + CC1(C)CCC(c2ccc(Cl)cc2)=C(CN2CCN(c3ccc(C(=O)NS(=O)(=O)c4ccc(N[C@H](CCN5CCOCC5)CSc5ccccc5)c(S(=O)(=O)C(F)(F)F)c4)cc3)CC2)C1 [Navitoclax] (partner 0.5 µM)
# Summary of the method: as §1
# Linifanib + Foretinib = compound: Cc1ccc(F)c(NC(=O)Nc2ccc(-c3cccc4[nH]nc(N)c34)cc2)c1 [Linifanib] + COc1cc2c(Oc3ccc(NC(=O)C4(C(=O)Nc5ccc(F)cc5)CC4)cc3F)ccnc2cc1OCCCN1CCOCC1 [Foretinib] (partner 0.25 µM)
# Summary of the method: as §1
# Linifanib + Lapatinib = compound: Cc1ccc(F)c(NC(=O)Nc2ccc(-c3cccc4[nH]nc(N)c34)cc2)c1 [Linifanib] + CS(=O)(=O)CCNCc1ccc(-c2ccc3ncnc(Nc4ccc(OCc5cccc(F)c5)c(Cl)c4)c3c2)o1 [Lapatinib] (partner 2 µM)
# Summary of the method: as §1
# Linifanib + Pictilisib = compound: Cc1ccc(F)c(NC(=O)Nc2ccc(-c3cccc4[nH]nc(N)c34)cc2)c1 [Linifanib] + CS(=O)(=O)N1CCN(Cc2cc3nc(-c4cccc5[nH]ncc45)nc(N4CCOCC4)c3s2)CC1 [Pictilisib] (partner 1 µM)
# Summary of the method: as §1
# Linifanib + Crizotinib = compound: Cc1ccc(F)c(NC(=O)Nc2ccc(-c3cccc4[nH]nc(N)c34)cc2)c1 [Linifanib] + C[C@@H](Oc1cc(-c2cnn(C3CCNCC3)c2)cnc1N)c1c(Cl)ccc(F)c1Cl [Crizotinib] (partner 1 µM)
# Summary of the method: as §1
# Linifanib + Linsitinib = compound: Cc1ccc(F)c(NC(=O)Nc2ccc(-c3cccc4[nH]nc(N)c34)cc2)c1 [Linifanib] + C[C@]1(O)C[C@@H](c2nc(-c3ccc4ccc(-c5ccccc5)nc4c3)c3c(N)nccn32)C1 [Linsitinib] (partner 1 µM)
# Summary of the method: as §1
# Linifanib + Alpelisib = compound: Cc1ccc(F)c(NC(=O)Nc2ccc(-c3cccc4[nH]nc(N)c34)cc2)c1 [Linifanib] + Cc1nc(NC(=O)N2CCC[C@H]2C(N)=O)sc1-c1ccnc(C(C)(C)C(F)(F)F)c1 [Alpelisib] (partner 2 µM)
# Summary of the method: as §1
# Linifanib + Olaparib = compound: Cc1ccc(F)c(NC(=O)Nc2ccc(-c3cccc4[nH]nc(N)c34)cc2)c1 [Linifanib] + O=C(c1cc(Cc2n[nH]c(=O)c3ccccc23)ccc1F)N1CCN(C(=O)C2CC2)CC1 [Olaparib] (partner 8 µM)
# Summary of the method: as §1
# Linifanib + Luminespib = compound: Cc1ccc(F)c(NC(=O)Nc2ccc(-c3cccc4[nH]nc(N)c34)cc2)c1 [Linifanib] + CCNC(=O)c1noc(-c2cc(C(C)C)c(O)cc2O)c1-c1ccc(CN2CCOCC2)cc1 [Luminespib] (partner 0.01 µM)
# Summary of the method: as §1
# Linifanib + OSI-027 = compound: Cc1ccc(F)c(NC(=O)Nc2ccc(-c3cccc4[nH]nc(N)c34)cc2)c1 [Linifanib] + COc1cccc2cc(-c3nc([C@H]4CC[C@H](C(=O)O)CC4)n4ncnc(N)c34)[nH]c12 [OSI-027] (partner 0.5 µM)
# Summary of the method: as §1
# Linifanib + Dasatinib = compound: Cc1ccc(F)c(NC(=O)Nc2ccc(-c3cccc4[nH]nc(N)c34)cc2)c1 [Linifanib] + Cc1nc(Nc2ncc(C(=O)Nc3c(C)cccc3Cl)s2)cc(N2CCN(CCO)CC2)n1 [Dasatinib] (partner 0.075 µM)
# Summary of the method: as §1
# Linifanib + Phenformin = compound: Cc1ccc(F)c(NC(=O)Nc2ccc(-c3cccc4[nH]nc(N)c34)cc2)c1 [Linifanib] + N=C(N)NC(=N)NCCc1ccccc1 [Phenformin] (partner 250 µM)
# Summary of the method: as §1
# Linifanib + Pemetrexed = compound: Cc1ccc(F)c(NC(=O)Nc2ccc(-c3cccc4[nH]nc(N)c34)cc2)c1 [Linifanib] + Nc1nc2[nH]cc(CCc3ccc(C(=O)N[C@@H](CCC(=O)O)C(=O)O)cc3)c2c(=O)[nH]1 [Pemetrexed] (partner 0.2 µM)
# Summary of the method: as §1
cell line,measurement,setting,value
NCI-H1299,relative viability,Linifanib; 0.03162 µM,1.02
same,relative viability,Linifanib; 0.1 µM,1.02
same,relative viability,Linifanib; 0.3162 µM,1.03
same,relative viability,Linifanib + Bortezomib; first compound 0.03162 µM,1.03
same,relative viability,Linifanib + Bortezomib; first compound 0.1 µM,1.01
same,relative viability,Linifanib + Bortezomib; first compound 0.3162 µM,1.02
same,relative viability,Linifanib + Navitoclax; first compound 0.03162 µM,1.06
same,relative viability,Linifanib + Navitoclax; first compound 0.1 µM,1.08
same,relative viability,Linifanib + Navitoclax; first compound 0.3162 µM,1
same,relative viability,Linifanib + Foretinib; first compound 0.03162 µM,1.1
same,relative viability,Linifanib + Foretinib; first compound 0.1 µM,1.11
same,relative viability,Linifanib + Foretinib; first compound 0.3162 µM,1.04
same,relative viability,Linifanib + Lapatinib; first compound 0.03162 µM,0.951
same,relative viability,Linifanib + Lapatinib; first compound 0.1 µM,0.95
same,relative viability,Linifanib + Lapatinib; first compound 0.3162 µM,0.994
same,relative viability,Linifanib + Pictilisib; first compound 0.03162 µM,0.575
same,relative viability,Linifanib + Pictilisib; first compound 0.1 µM,0.885
same,relative viability,Linifanib + Pictilisib; first compound 0.3162 µM,0.829
same,relative viability,Linifanib + Crizotinib; first compound 0.03162 µM,0.899
same,relative viability,Linifanib + Crizotinib; first compound 0.1 µM,0.956
same,relative viability,Linifanib + Crizotinib; first compound 0.3162 µM,0.97
same,relative viability,Linifanib + Linsitinib; first compound 0.03162 µM,0.975
same,relative viability,Linifanib + Linsitinib; first compound 0.1 µM,0.996
same,relative viability,Linifanib + Linsitinib; first compound 0.3162 µM,0.998
same,relative viability,Linifanib + Alpelisib; first compound 0.03162 µM,1.11
same,relative viability,Linifanib + Alpelisib; first compound 0.1 µM,1.02
same,relative viability,Linifanib + Alpelisib; first compound 0.3162 µM,1.06
same,relative viability,Linifanib + Olaparib; first compound 0.03162 µM,0.978
same,relative viability,Linifanib + Olaparib; first compound 0.1 µM,0.958
same,relative viability,Linifanib + Olaparib; first compound 0.3162 µM,0.959
NCI-H1563,relative viability,Linifanib; 0.03162 µM,0.904
same,relative viability,Linifanib; 0.1 µM,1.04
same,relative viability,Linifanib; 0.3162 µM,1.02
same,relative viability,Linifanib + Bortezomib; first compound 0.03162 µM,0.952
same,relative viability,Linifanib + Bortezomib; first compound 0.1 µM,0.87
same,relative viability,Linifanib + Bortezomib; first compound 0.3162 µM,0.812
same,relative viability,Linifanib + Luminespib; first compound 0.03162 µM,0.558
same,relative viability,Linifanib + Luminespib; first compound 0.1 µM,0.504
same,relative viability,Linifanib + Luminespib; first compound 0.3162 µM,0.512
same,relative viability,Linifanib + Foretinib; first compound 0.03162 µM,0.954
same,relative viability,Linifanib + Foretinib; first compound 0.1 µM,0.968
same,relative viability,Linifanib + Foretinib; first compound 0.3162 µM,0.887
same,relative viability,Linifanib + OSI-027; first compound 0.03162 µM,0.718
same,relative viability,Linifanib + OSI-027; first compound 0.1 µM,0.814
same,relative viability,Linifanib + OSI-027; first compound 0.3162 µM,0.716
same,relative viability,Linifanib + Lapatinib; first compound 0.03162 µM,0.963
same,relative viability,Linifanib + Lapatinib; first compound 0.1 µM,1.05
same,relative viability,Linifanib + Lapatinib; first compound 0.3162 µM,0.913
same,relative viability,Linifanib + Pictilisib; first compound 0.03162 µM,0.669
same,relative viability,Linifanib + Pictilisib; first compound 0.1 µM,0.665
same,relative viability,Linifanib + Pictilisib; first compound 0.3162 µM,0.629
same,relative viability,Linifanib + Crizotinib; first compound 0.03162 µM,0.862
same,relative viability,Linifanib + Crizotinib; first compound 0.1 µM,0.852
same,relative viability,Linifanib + Crizotinib; first compound 0.3162 µM,0.879
same,relative viability,Linifanib + Linsitinib; first compound 0.03162 µM,1.14
same,relative viability,Linifanib + Linsitinib; first compound 0.1 µM,1.33
same,relative viability,Linifanib + Linsitinib; first compound 0.3162 µM,1.08
same,relative viability,Linifanib + Alpelisib; first compound 0.03162 µM,0.901
same,relative viability,Linifanib + Alpelisib; first compound 0.1 µM,0.956
same,relative viability,Linifanib + Alpelisib; first compound 0.3162 µM,0.956
same,relative viability,Linifanib + Dasatinib; first compound 0.03162 µM,0.452
same,relative viability,Linifanib + Dasatinib; first compound 0.1 µM,0.484
same,relative viability,Linifanib + Dasatinib; first compound 0.3162 µM,0.496
same,relative viability,Linifanib + Phenformin; first compound 0.03162 µM,0.669
same,relative viability,Linifanib + Phenformin; first compound 0.1 µM,0.691
same,relative viability,Linifanib + Phenformin; first compound 0.3162 µM,0.605
same,relative viability,Linifanib + Pemetrexed; first compound 0.03162 µM,0.803
same,relative viability,Linifanib + Pemetrexed; first compound 0.1 µM,0.911
same,relative viability,Linifanib + Pemetrexed; first compound 0.3162 µM,0.692
